*1 amine or outer side, *2 acyl side, *3 side chain or, on linkers, in order; H or OH if unused. Where a SMILES comes first, the peptide text is derived from it. Side-chain parts run from the residue outwards. [ ]: non-standard residue; d: D form. The star is where a group is joined. Isobutyryl(2-(3-CN-5-F-Ph)) = CC(C)(C(=O)*)c1cc(F)cc(C#N)c1; C20 diacid = O=C(O)CCCCCCCCCCCCCCCCCCC(=O)*; αMePhe(2-F) = C[C@](N)(Cc1ccccc1F)C(=O)O; γGlu = O=C(O)[C@H](CCC(=O)[*:2])N[*:1]; X27 = O=C1CC(C(=O)*)(c2ccccc2)CN1; X3 = CC(C)(C(=O)*)c1ccc(Cl)cc1; AEEA = NCCOCCOCC(=O)O; Aib = CC(C)(N)C(=O)O; GABA = NCCCC(=O)O; βAla = NCCC(=O)O
Legend:
Format in all cases: cell-based
GIP receptor [1] = biological target: T1, GIP receptor (Homo sapiens, UniProt P48546); experiment: PathHunter β-arrestin assay, GIP receptor; design: host or cells: PathHunter CHO-K1 GIPR β-Arrestin Cell Line; settings: β-arrestin-2 recruitment, PathHunter CHO-K1 GIPR β-Arrestin Cell Line, 90 min at 37° C.; normalized to GIP; read-out: GIPR β Arrestin EC50
T1 sequence (P48546 22-466): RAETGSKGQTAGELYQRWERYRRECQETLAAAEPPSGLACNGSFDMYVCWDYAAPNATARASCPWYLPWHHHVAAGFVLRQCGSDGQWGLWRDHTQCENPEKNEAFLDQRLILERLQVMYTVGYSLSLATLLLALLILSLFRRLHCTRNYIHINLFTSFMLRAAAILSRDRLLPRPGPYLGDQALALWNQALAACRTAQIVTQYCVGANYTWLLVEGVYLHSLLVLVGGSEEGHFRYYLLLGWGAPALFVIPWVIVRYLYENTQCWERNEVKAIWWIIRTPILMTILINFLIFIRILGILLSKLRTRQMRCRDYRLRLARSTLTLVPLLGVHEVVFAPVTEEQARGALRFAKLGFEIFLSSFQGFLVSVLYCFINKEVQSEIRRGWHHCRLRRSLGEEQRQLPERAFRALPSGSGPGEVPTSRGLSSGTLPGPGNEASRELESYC

GLP-1 receptor [2] = biological target: T2, GLP-1 receptor (Homo sapiens, UniProt P43220); experiment: PathHunter β-arrestin assay, GLP-1 receptor; design: host or cells: PathHunter CHO-K1 GLP1R β-Arrestin Cell Line; settings: β-arrestin-2 recruitment, PathHunter CHO-K1 GLP1R β-Arrestin Cell Line, 90 min at 37° C.; normalized to GLP-1; read-out: GLP-1R β Arrestin EC50
GIP receptor [3] = biological target: T1, GIP receptor; experiment: HitHunter cAMP assay, GIP receptor; settings: for EC50: CHO cells stably expressing GIP receptor, cAMP accumulation, 30 min, read-out: EC50 GIP-1R; for Emax: CHO cells, cAMP, normalized to maximum signal from GIP (high) and DMSO (low), read-out: Emax GIP-1R
Procedure: CAMP accumulation was measured in Chinese hamster ovary (CHO) cells stably expressing the human GLP-1 receptor or GIP receptor using the HitHunter CAMP Assay for Small Molecules Kit (Eurofins). Briefly, cells were grown in Ham's F12 Nutrient Mix with 10% FBS and lifted with Cell dissociation buffer, Enzyme free, PBS based (ThermoFisher). Cells were pelleted and resuspended in Hank's buffered saline solution with 10 mM Hepes and 625 μM 3-isobutyl-1-methylxanthine. The antibody reagent was then added to cells at a 1:2 ratio and 5 μL of mixture was seeded in 384-well small volume white assay plates, at 10,000 cells/well. Cells were then treated with 50 nl compound in DMSO using an ECHO 550 acoustic dispenser (Labcyte) in a 20-point dose response format in triplicate for 30 min. Cells were the lysed and detection reagents added according to the manufacturer's protocol. After overnight incubation, luminescence was measured using a Perkin Elmer Envision plate reader. Raw data was normalized to the maximum signal from GLP-1 or GIP (high) and DMSO (low). Dose response curves were analyzed using GraphPad Prism 9.0.

GLP-1 receptor [4] = biological target: T2, GLP-1 receptor; experiment: HitHunter cAMP assay, GLP-1 receptor; settings: for EC50: CHO cells stably expressing human GLP-1 receptor, cAMP accumulation, 30 min, read-out: EC50 GLP-1R; for Emax: CHO cells, cAMP, normalized to maximum signal from GLP-1 (high) and DMSO (low), read-out: Emax GLP-1R

T2 sequence (P43220 24-463): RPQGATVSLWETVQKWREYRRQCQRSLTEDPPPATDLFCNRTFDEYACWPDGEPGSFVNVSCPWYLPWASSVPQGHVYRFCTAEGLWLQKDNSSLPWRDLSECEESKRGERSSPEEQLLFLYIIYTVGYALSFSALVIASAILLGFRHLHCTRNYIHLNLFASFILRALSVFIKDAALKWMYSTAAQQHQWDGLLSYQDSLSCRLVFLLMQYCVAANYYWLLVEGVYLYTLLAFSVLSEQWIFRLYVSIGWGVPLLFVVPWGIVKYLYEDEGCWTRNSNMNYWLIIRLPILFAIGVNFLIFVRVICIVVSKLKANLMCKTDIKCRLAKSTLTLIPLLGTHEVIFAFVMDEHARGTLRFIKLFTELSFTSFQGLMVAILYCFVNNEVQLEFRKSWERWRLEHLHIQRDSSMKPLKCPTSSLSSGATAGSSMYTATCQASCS

Compound | EC50 (GIP receptor [1]) [nM] | EC50 (GLP-1 receptor [2]) [nM] | EC50 (GIP receptor [3]) [nM] | Emax (GIP receptor [3]) [%] | EC50 (GLP-1 receptor [4]) [nM] | Emax (GLP-1 receptor [4]) [%]
CC[C@H](C)[C@H](NC(=O)[C@H](CC(C)C)NC(=O)[C@H](Cc1c[nH]c2ccccc12)NC(=O)[C@H](CCC(N)=O)NC(=O)[C@@H](NC(=O)[C@H](Cc1ccccc1)NC(=O)[C@H](C)NC(=O)[C@H](CCCCNC(=O)COCCOCCNC(=O)COCCOCCNC(=O)CC[C@H](NC(=O)CCCCCCCCCCCCCCCCCCC(=O)O)C(=O)O)NC(=O)[C@H](CCC(N)=O)NC(=O)[C@H](C)NC(=O)[C@@H](NC(=O)[C@H](CCCCN)NC(=O)[C@H](CC(=O)O)NC(=O)[C@H](CC(C)C)NC(=O)C(C)(C)NC(=O)[C@@H](NC(=O)[C@H](CO)NC(=O)[C@H](Cc1ccc(O)cc1)NC(=O)[C@H](CC(=O)O)NC(=O)[C@H](CO)NC(=O)[C@@H](NC(=O)[C@](C)(Cc1ccccc1F)NC(=O)[C@@H](NC(=O)CNC(=O)[C@H](CCC(=O)O)NC(=O)CCNC(=O)C(C)(C)c1cc(F)cc(C#N)c1)[C@@H](C)O)[C@@H](C)O)[C@@H](C)CC)[C@@H](C)CC)C(C)C)C(=O)N[C@@H](C)C(=O)NCC(=O)NCC(=O)N1CCC[C@H]1C(=O)N[C@@H](CO)C(=O)N[C@@H](CO)C(=O)NCC(=O)N[C@@H](C)C(=O)N1CCC[C@H]1C(=O)N1CCC[C@H]1C(=O)N1CCC[C@H]1C(=O)N[C@@H](CO)C(N)=O [Compound 245] ({Isobutyryl(2-(3-CN-5-F-Ph))-βAla}-EGT[αMePhe(2-F)]TSDYSI[Aib]LDKIAQK([AEEA-AEEA-γGlu-C20 diacid])AFVQWLIAGGPSSGAPPPS-NH2) | < 1000 | > 1000 | 0.1 to 1 | 90 | 0.1 to 1 | 122
CC[C@H](C)[C@H](NC(=O)[C@H](CC(C)C)NC(=O)[C@H](Cc1c[nH]c2ccccc12)NC(=O)[C@H](CCC(N)=O)NC(=O)[C@@H](NC(=O)[C@H](Cc1ccccc1)NC(=O)[C@H](C)NC(=O)[C@H](CCCCNC(=O)COCCOCCNC(=O)COCCOCCNC(=O)CC[C@H](NC(=O)CCCCCCCCCCCCCCCCCCC(=O)O)C(=O)O)NC(=O)[C@H](CCC(N)=O)NC(=O)[C@H](C)NC(=O)[C@@H](NC(=O)[C@H](CCCCN)NC(=O)[C@H](CC(=O)O)NC(=O)[C@H](CC(C)C)NC(=O)C(C)(C)NC(=O)[C@@H](NC(=O)[C@H](CO)NC(=O)[C@H](Cc1ccc(O)cc1)NC(=O)[C@H](CC(=O)O)NC(=O)[C@H](CO)NC(=O)[C@@H](NC(=O)[C@H](Cc1ccccc1)NC(=O)[C@@H](NC(=O)CNC(=O)[C@H](CCC(=O)O)NC(=O)CCNC(=O)C(C)(C)c1ccc(Cl)cc1)[C@@H](C)O)[C@@H](C)O)[C@@H](C)CC)[C@@H](C)CC)C(C)C)C(=O)N[C@@H](C)C(=O)NCC(=O)NCC(=O)N1CCC[C@H]1C(=O)N[C@@H](CO)C(=O)N[C@@H](CO)C(=O)NCC(=O)N[C@@H](C)C(=O)N1CCC[C@H]1C(=O)N1CCC[C@H]1C(=O)N1CCC[C@H]1C(=O)N[C@@H](CO)C(N)=O [Compound 185] ({X3-βAla}-EGTFTSDYSI[Aib]LDKIAQK([AEEA-AEEA-γGlu-C20 diacid])AFVQWLIAGGPSSGAPPPS-NH2) | > 1000 | < 1000 | 10 to 100 | 95 | 0.1 to 1 | 101
CC[C@H](C)[C@H](NC(=O)[C@H](CC(C)C)NC(=O)[C@H](Cc1c[nH]c2ccccc12)NC(=O)[C@H](CC(N)=O)NC(=O)[C@@H](NC(=O)[C@H](Cc1ccccc1)NC(=O)[C@H](C)NC(=O)[C@H](CCCCNC(=O)COCCOCCNC(=O)COCCOCCNC(=O)CC[C@H](NC(=O)CCCCCCCCCCCCCCCCCCC(=O)O)C(=O)O)NC(=O)[C@H](CCC(N)=O)NC(=O)[C@H](C)NC(=O)[C@@H](NC(=O)[C@H](CCCCN)NC(=O)[C@H](CC(=O)O)NC(=O)[C@H](CC(C)C)NC(=O)C(C)(C)NC(=O)[C@@H](NC(=O)[C@H](CO)NC(=O)[C@H](Cc1ccc(O)cc1)NC(=O)[C@H](CC(=O)O)NC(=O)[C@H](CO)NC(=O)[C@@H](NC(=O)[C@H](Cc1ccccc1)NC(=O)[C@@H](NC(=O)CNC(=O)[C@H](CCC(=O)O)NC(=O)CCNC(=O)C(C)(C)c1cc(F)cc(C#N)c1)[C@@H](C)O)[C@@H](C)O)[C@@H](C)CC)[C@@H](C)CC)C(C)C)C(=O)N[C@@H](C)C(=O)NCC(=O)NCC(=O)N1CCC[C@H]1C(=O)N[C@@H](CO)C(=O)N[C@@H](CO)C(=O)NCC(=O)N[C@@H](C)C(=O)N1CCC[C@H]1C(=O)N1CCC[C@H]1C(=O)N1CCC[C@H]1C(=O)N[C@@H](CO)C(N)=O [Compound 182] ({Isobutyryl(2-(3-CN-5-F-Ph))-βAla}-EGTFTSDYSI[Aib]LDKIAQK([AEEA-AEEA-γGlu-C20 diacid])AFVNWLIAGGPSSGAPPPS-NH2) | < 1000 | > 1000 | 10 to 100 | 98 | 0.1 to 1 | 96
CC[C@H](C)[C@H](NC(=O)[C@H](CC(C)C)NC(=O)[C@H](Cc1c[nH]c2ccccc12)NC(=O)[C@H](CCC(N)=O)NC(=O)[C@@H](NC(=O)[C@H](Cc1ccccc1)NC(=O)[C@H](C)NC(=O)[C@H](CCCCNC(=O)COCCOCCNC(=O)COCCOCCNC(=O)CC[C@H](NC(=O)CCCCCCCCCCCCCCCCCCC(=O)O)C(=O)O)NC(=O)[C@H](CCC(N)=O)NC(=O)[C@H](C)NC(=O)[C@@H](NC(=O)[C@H](CCCCN)NC(=O)[C@H](CC(=O)O)NC(=O)[C@H](CC(C)C)NC(=O)C(C)(C)NC(=O)[C@@H](NC(=O)[C@H](CO)NC(=O)[C@H](Cc1ccc(O)cc1)NC(=O)[C@H](CC(=O)O)NC(=O)[C@H](CO)NC(=O)[C@@H](NC(=O)[C@H](Cc1ccccc1)NC(=O)[C@@H](NC(=O)CNC(=O)[C@@H](CC(=O)O)NC(=O)CCCNC(=O)C1(c2ccccc2)CNC(=O)C1)[C@@H](C)O)[C@@H](C)O)[C@@H](C)CC)[C@@H](C)CC)C(C)C)C(=O)N[C@@H](C)C(=O)NCC(=O)NCC(=O)N1CCC[C@H]1C(=O)N[C@@H](CO)C(=O)N[C@@H](CO)C(=O)NCC(=O)N[C@@H](C)C(=O)N1CCC[C@H]1C(=O)N1CCC[C@H]1C(=O)N1CCC[C@H]1C(=O)N[C@@H](CO)C(N)=O (stereo partly drawn) [Compound 121] ({X27-GABA}-[dD]GTFTSDYSI[Aib]LDKIAQK([AEEA-AEEA-γGlu-C20 diacid])AFVQWLIAGGPSSGAPPPS-NH2) | < 1000 | > 1000 | > 1000 | 76 | 10 to 100 | 72
CC[C@H](C)[C@H](NC(=O)[C@H](CC(C)C)NC(=O)[C@H](Cc1c[nH]c2ccccc12)NC(=O)[C@H](CCC(N)=O)NC(=O)[C@@H](NC(=O)[C@H](Cc1ccccc1)NC(=O)[C@H](C)NC(=O)[C@H](CCCCNC(=O)COCCOCCNC(=O)COCCOCCNC(=O)CC[C@H](NC(=O)CCCCCCCCCCCCCCCCCCC(=O)O)C(=O)O)NC(=O)[C@H](CCC(N)=O)NC(=O)[C@H](C)NC(=O)[C@@H](NC(=O)[C@H](CCCCN)NC(=O)[C@H](CC(=O)O)NC(=O)[C@H](CC(C)C)NC(=O)C(C)(C)NC(=O)[C@@H](NC(=O)[C@H](CO)NC(=O)[C@H](Cc1ccc(O)cc1)NC(=O)[C@H](CC(=O)O)NC(=O)[C@H](CO)NC(=O)[C@@H](NC(=O)[C@H](Cc1ccccc1)NC(=O)[C@@H](NC(=O)CNC(=O)[C@H](CCC(=O)O)NC(=O)CCNC(=O)C(C)(C)c1cc(F)cc(C#N)c1)[C@@H](C)O)C(C)C)[C@@H](C)CC)[C@@H](C)CC)C(C)C)C(=O)N[C@@H](C)C(=O)NCC(=O)NCC(=O)N1CCC[C@H]1C(=O)N[C@@H](CO)C(=O)N[C@@H](CO)C(=O)NCC(=O)N[C@@H](C)C(=O)N1CCC[C@H]1C(=O)N1CCC[C@H]1C(=O)N1CCC[C@H]1C(=O)N[C@@H](CO)C(N)=O [Compound 166] ({Isobutyryl(2-(3-CN-5-F-Ph))-βAla}-EGTFVSDYSI[Aib]LDKIAQK([AEEA-AEEA-γGlu-C20 diacid])AFVQWLIAGGPSSGAPPPS-NH2) | < 1000 | > 1000 | 1 to 10 | 108 | 10 to 100 | 77

— patent publication US12281149B2, “Modulators of G-protein coupled receptors” (priority 2021, dated 2025)
